# Experimental data from patent US7169970B2, “Herbicide resistant plants” (priority 2000, dated 2007).
# Where a name gives a salt, the structure may show the parent alone.
# What was measured:
# Assay type in all cases: biochemical
# [1] = target: T1, mutant Brassica napus EPSPS (Brassica napus, UniProt P17688, P178S/T174I); test: Radiochemical EPSPS assay of purified mutant Brassica napus EPSPS
# T1 construct: The mature mutant Brassica napus EPSPS protein is purified; initiating Met (N); made in house; host or cells: E. coli BL21 (DE3) RP, vector pET24a
# Procedure: Assays are carried out generally according to the radiochemical method of Padgette et al 1987 (Archives of Biochemistry and Biophysics, 258(2) 564–573) with K+ions as the major species of cationic counterion. Assays in a total volume of 50 μl, in 50 mM Hepes(KOH) pH 7.0 at 25° C., contain purified enzyme or plant extract (see below) diluted appropriately in Hepes pH 7.0 containing 10% glycerol, and 5 mM DTT, […] (K+ salt) at 0.75 or 2 mM as indicated. Optionally, for assays of crude plant extracts, assays also contain 5 mM KF and/or 0.1 mM ammonium molybdate. Assays are started with the addition of ^14C phosphoenolpyruvate (cyclohexylammonium+salt) and stopped after 2–10 minutes (2 minutes is preferable) with the addition of 50 μl of a solution of 1 part 1M acetic acid and 9 parts ethanol. […] Apparent Km and Vmax values are determined by least squares fit to a hyperbola with simple weighting using the Grafit 3.09b from Erithacus Software Ltd. Km values are generally ascertained using 8–9 concentrations of variable substrate ranging from Km/2–10 Km and triplicate points. […]
# The mature mutant Brassica napus EPSPS protein is purified at ˜4 C as follows. […] EPSPS-containing fractions detected on the basis of EPSPS enzyme activity are combined and loaded onto an xk16 column containing 20 ml of HP Q-Sepharose equilibrated with S200 buffer. […]
# [2] = tested on: resistant forms of EPSPS; test: EPSPS assays of plant extracts in the presence of glyphosate, resistant enzyme; conditions: 0.1 mM N-(phosphonomethyl)glycine; 0.1 mM 14C-PEP; 0.75 mM shikimate-3-Pi; estimated
# Procedure: (§1) Assays are carried out generally according to the radiochemical method of Padgette et al 1987 (Archives of Biochemistry and Biophysics, 258(2) 564–573) with K+ions as the major species of cationic counterion. Assays in a total volume of 50 μl, in 50 mM Hepes(KOH) pH 7.0 at 25° C., contain purified enzyme or plant extract (see below) diluted appropriately in Hepes pH 7.0 containing 10% glycerol, and 5 mM DTT, ^14C PEP either as variable-substrate (for kinetic determinations) or fixed at 100 or 250 μM and shikimate 3 Phosphate (K+ salt) at 0.75 or 2 mM as indicated. Optionally, for assays of crude plant extracts, assays also contain 5 mM KF and/or 0.1 mM ammonium molybdate. Assays are started with the addition of ^14C phosphoenolpyruvate (cyclohexylammonium+salt) and stopped after 2–10 minutes (2 minutes is preferable) with the addition of 50 μl of a solution of 1 part 1M acetic acid and 9 parts ethanol. […] Apparent Km and Vmax values are determined by least squares fit to a hyperbola with simple weighting using the Grafit 3.09b from Erithacus Software Ltd. Km values are generally ascertained using 8–9 concentrations of variable substrate ranging from Km/2–10 Km and triplicate points. […]
# [3] = tested on: sensitive w/t form of EPSPS; test: EPSPS assays of plant extracts in the presence of glyphosate, sensitive w/t enzyme; conditions: 0.1 mM N-(phosphonomethyl)glycine; 0.1 mM 14C-PEP; 0.75 mM shikimate-3-Pi
# Procedure: as §1
# T1 sequence (P17688 73-516 T174I/P178S): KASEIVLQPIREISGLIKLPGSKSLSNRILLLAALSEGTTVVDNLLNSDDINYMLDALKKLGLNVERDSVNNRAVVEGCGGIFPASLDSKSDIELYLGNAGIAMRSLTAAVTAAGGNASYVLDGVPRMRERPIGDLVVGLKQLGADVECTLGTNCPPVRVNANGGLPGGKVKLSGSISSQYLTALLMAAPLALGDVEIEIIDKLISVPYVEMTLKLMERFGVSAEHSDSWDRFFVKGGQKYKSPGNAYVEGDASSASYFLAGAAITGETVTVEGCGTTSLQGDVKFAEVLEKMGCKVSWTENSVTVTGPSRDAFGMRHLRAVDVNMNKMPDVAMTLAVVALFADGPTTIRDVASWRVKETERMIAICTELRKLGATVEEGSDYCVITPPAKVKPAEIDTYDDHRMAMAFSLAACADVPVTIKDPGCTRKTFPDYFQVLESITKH
SMILES,"IC50 ([1]; at 40 μM PEP, 2 mM shikimate-3-Pi, purified enzyme, read-out: IC50 value for the potassium salt of glyphosate) [µM]","Ki ([1]; purified mutant EPSPS, read-out: estimated Ki value for potassium glyphosate) [µM]",inhibition of resistant forms of EPSPS [2] [%],inhibition of sensitive w/t EPSPS [3] [%]
O=C(O)CNCP(=O)(O)O [potassium salt of glyphosate],~600,~450,–,–
O=C(O)CNCP(=O)(O)O [N-(phosphonomethyl)glycine],–,–,< 8.5,> 98
